# How the values were obtained:
# [1] = tested on: toxic hepatitis caused by carbon tetrachloride (CCl4); assay: Treatment of acute toxic hepatitis (CCl4) in rats by parenteral (intravenous) administration; format: in vivo; design: Total bilirubin, serum: unit not given here
# Method: Treatment of toxic hepatitis by means of parenteral administration of the inventive substance. Acute toxic hepatitis was induced in rats by means of intragastric administration of 50% solution of carbon tetrachloride (CCl4) in olive oil in the amount of 1 ml/kg during 6 days. After 10 days the presence of toxic hepatitis was confirmed by morphological image of liver in all experimental animals. Starting from that day, for 10 days the preparations were administered to the experimental animals by way of treatment, once every 24 hours.
# Essentiale was used as the preparation for comparison, which was administered in ampoules in the amount of 1 ml/100 g intravenously, slowly, into the caudal vein. The inventive substance was also administered intravenously in varying amounts in order to refine the treatment procedure. The effectiveness of treatment was evaluated on the basis of clinical performance, body weight dynamics, relative liver mass, the contents of bilirubin, transaminases, phosphatases, ceruloplasmin, total protein, blood serum lipids, the contents of glycogen, glutathione, SH-groups, stress tests (hexenal test, bromsulphalein test) and the histological pattern of liver.
# Weight dynamics of the rats were determined by means of scales VLR-500. Liver of the animals was weighted using electronic scales 1602 MP by “Sartorius”. The contents of reduced glutathione in liver and the content of sulfhydryl groups in blood serum was evaluated by amperometric titration according to Rubinnaya N. S. (Stalnaya I.D., Garishvili T. G Modern methods in biochemistry. Moscow, Meditsina, 1977, pp. 66-68), the contents of glycogen—by the Samodi method (Stalnaya I.D., Garishvili T. G Modern methods in biochemistry. Moscow, Meditsina, 1977, pp. 66-68). The antitoxic function of liver was evaluated by the duration of hexenal sleep (70 mg per 1 kg of body weight), and the excretory function of liver was assessed by means of bromsulphalein test.
# Blood for biochemical tests was obtained by means of paracentesis of the caudal vein of rats.
# The activity of ALT, AST, ALP, ACP, LDH, thymol test, the contents of total protein and lipids, cholesterol, blood serum bilirubin were assessed by means of sets Bio-Lat-Test manufactured by a Czech company “Lachema”, the contents of ceruloplasmin were assessed according to Babenko (Laboratory research methods in clinical practice. Reference book, under the editorship of V. V. Menshikov. Moscow, Russia—Meditsina, 1987, p. 365). The animals were killed by decapitation, subjected to anatomicopathological autopsy and histological study. The experimental and reference rats were killed by means of decapitation. The material was fixed in 10-15% formaldehyde and embedded in paraffin. Paraffin slices were stained by means of hematoxylin and eosin. Fixed frozen slices were stained for fat by means of Sudan III.
# Statistical processing of the experiments' results was done according to Student's T-distribution and F-distribution.
# The effectiveness of preparations was assessed according to several groups of indices: morphometric, biochemical and functional. First of all the clinical performance of intoxication was observed. The clinical performance in the group of rats that received CCl4 with no treatment was characterized by hypodynamia, dormancy, disheveled hair and untidy appearance of the animals. They gained weight less well than the other rats. In this group, by day 15 of the study 80% of animals were dead.
# [2] = tested on: liver cirrhosis induced by carbon tetrachloride (CCl4); assay: Treatment of liver cirrhosis (CCl4) in rats by oral administration; format: in vivo; design: Relative liver mass: unit not given here
# Method: Treatment of liver cirrhosis by oral administration of the inventive substance. Liver cirrhosis was induced in rats by means of intragastric administration of 50% solution of carbon tetrachloride (CCl4) in olive oil in the amount of 1 ml/kg during 10 days. After 20 days the presence of liver cirrhosis was confirmed by morphological image of liver in all laboratory animals. Starting from that day, for 10 days the inventive agent was administered to the laboratory animals by way of treatment, once every 24 hours, in varying amounts in order to refine the optimal treatment procedure.
# The effectiveness of the inventive preparation was evaluated in comparison with Essentiale by several groups of indices: morphometric, biochemical and functional. First of all the clinical performance of intoxication was observed. The clinical performance in the group of rats that received CCl4 with no treatment was characterized by hypodynamia, dormancy, disheveled hair and untidy appearance of the animals. They gained weight less well than the other rats. In this group by day 15 of the study 80% of the animals were dead, in the group that received Essentiale—60%, in the group that received the inventive agent—40%.
# Quantitative assessment of the preparation's effectiveness in treatment of toxic hepatitis was performed using a point rating system, taking into account the marker indices: the largest score for each index was assigned to the group with the more pronounced positive effect of the preparation.
# [3] = CCl4 intoxication, after 10 days i.v. treatment, inventive substance 25 mg/kg, Essentiale 1 ml/100 g, M ± m
# [4] = point rating system, larger score = more pronounced positive effect, inventive substance 180 mg/kg, Essentiale 100 mg/kg
# [5] = rats, CCl4 intoxication (cirrhosis), after 10 days oral treatment, inventive substance 90 mg/kg, Essentiale 100 mg/kg, M ± m
# [6] = rats, CCl4 liver cirrhosis, oral treatment
compound,measurement,setting,value
"O=Nc1c(O)n(-c2ccc(Br)cc2)c(=O)[nH]c1=O [The inventive substance, 1-(4-bromophenyl)-6-hydroxy-5-nitroso-1,2,3,4-tetrahydropyrimidine-2.4-dione]",Body weight,"[1]; CCl4 intoxication, after 10 days i.v. treatment once every 24 h, inventive substance 25 mg/kg, Essentiale 1 ml/100 g, M ± m",174 ± 8 g
same,Hexenal sleep,"[1]; CCl4 intoxication, after 10 days i.v. treatment, hexenal 70 mg/kg, inventive substance 25 mg/kg, Essentiale 1 ml/100 g, M ± m",31.0 ± 2.0 min
same,ACP,[1]; [3],0.75 ± 0.10 μkat/l
same,"Alanine aminotransferase, serum",[1]; [3],0.85 ± 0.08 µmol/s/L
same,"Alkaline phosphatase, serum",[1]; [3],811 ± 26.3 nmol/s/L
same,"Aspartate aminotransferase, serum",[1]; [3],0.32 ± 0.04 µmol/s/L
same,"Ceruloplasmin, serum",[1]; [3],477 ± 44 mg/L
same,"Cholesterol, serum",[1]; [3],1.70 ± 0.19 mmol/L
same,"Concentration of bromsulphalein at 10th minute after administrating the serum, extinction,",[1]; [3],13.5 ± 1.6 extinction
same,"Glycogen, liver",[1]; [3],2691 ± 191 mg %
same,LDH,[1]; [3],5.49 ± 0.45 mmol/h/L
same,"Reduced glutathione, liver",[1]; [3],164 ± 10 mg %
same,Relative liver mass,[1]; [3],27.87 ± 1.03 g/kg
same,"SH-groups, serum",[1]; [3],1554 ± 72 mg %
same,Thymol test,[1]; [3],1.18 ± 0.17 turbidity units
same,"Total bilirubin, serum",[1]; [3],3.8 ± 0.5
same,"Total lipids, serum",[1]; [3],3.4 ± 0.09 g/L
same,"Total protein, serum",[1]; [3],69 ± 6 g/L
same,"microvesicular focal steatosis (liver histology, in words)","[1]; CCl4 toxic hepatitis, after i.v. treatment",absence of microvesicular focal steatosis
same,percentage of deaths in the groups by the end of the treatment,"[1]; CCl4 toxic hepatitis, day 20, 40% dead by start of treatment (day 10), inventive substance 25 mg/kg i.v., Essentiale 1 ml/100 g i.v.",40%
same,"manifestations of intoxication (clinical performance, in words)","[1]; CCl4 toxic hepatitis, i.v. treatment",reduced or almost completely arrested the manifestations of intoxication
same,"Quantitative assessment of effectiveness, ALP score",[2]; [4],11 points
same,"Quantitative assessment of effectiveness, ALT score",[2]; [4],7 points
same,"Quantitative assessment of effectiveness, AST score",[2]; [4],7 points
same,"Quantitative assessment of effectiveness, Hexenal sleep score",[2]; [4],10 points
same,"Quantitative assessment of effectiveness, Weight coefficient score",[2]; [4],10 points
same,Body weight,"[2]; rats, CCl4 intoxication (cirrhosis), after 10 days oral treatment once every 24 h, inventive substance 90 mg/kg, Essentiale 100 mg/kg, M ± m",174 ± 7 g
same,"Alanine aminotransferase, serum",[2]; [5],0.85 ± 0.08 µmol/s/L
same,"Alkaline phosphatase, serum",[2]; [5],811 ± 26.3 nmol/s/L
same,"Aspartate aminotransferase, serum",[2]; [5],0.32 ± 0.04 µmol/s/L
same,Hexenal sleep,[2]; [5],31.0 ± 2.0 min
same,Relative liver mass,[2]; [5],27.87 ± 1.03
same,"degenerative changes of the liver (histology, in words)","[2]; rats, CCl4 liver cirrhosis, after oral treatment, majority of rats",no degenerative changes of the liver
same,condition and function of liver (in words),[2]; [6],virtually completely and reliably normalized the condition and function of liver
same,"manifestations of intoxication (clinical performance, in words)",[2]; [6],reduced or almost completely arrested the manifestations of intoxication
same,animals dead by day 15 of the study,"[2]; rats, CCl4 liver cirrhosis, oral treatment, untreated CCl4 group 80%",40%
same,"Quantitative assessment of effectiveness, Total points","[2]; sum of marker index scores, inventive substance 180 mg/kg, Essentiale 100 mg/kg",45 points
